Results as given in patent US7939550B2, “Aminopyrazole derivatives, process for the preparation thereof, and composition for preventing or treating ischemic diseases containing the same” (Korea Research Institute of Chemical Technology, priority 2006, dated 2011).

Test system: Cardiomyocyte cell line H9c2 cells
Assay: Inhibitory effect on ischemic cell death (chemical hypoxia, DAPI staining)
Format: cell-based
Conditions: Rattus norvegicus, derivative 10 μM in DMSO, 30 min pretreatment, then chemical hypoxia solution 1 to 2 hours, DAPI stain, fluorescence microscope, DMSO control 25.86385, read-out: Apoptosis (%)
Experimental: The aminopyrazole derivatives of the present invention were examined for ischemic cell death inhibitory effect in cells according to the following procedure.
Cardiomyocyte cell line H9c2 cells were cultured in DMEM (Dulbecco's modified Eagle's medium) supplemented with 10% fetal bovine serum and 1% penicillin/streptomycin (100× solution). The cells were grown in 35 mm dishes such that the number thereof becomes 1×10^4, and cultured at 37° C. for 48 hours in a CO2 incubator. The cells were treated with 0.1% DMSO only (control), or the solutions dissolving the derivatives of Examples 1 to 30 (10 μM) in DMSO respectively. After 30 minutes, the cells were washed with PBS, and continuously treated with the DMSO solution (control) or the above solutions dissolving the derivatives together with chemical hypoxia solution (106 mM NaCl, 4.4 mM KCl, 1 mM MgCl2, 38 mM NaHCO3, 2.5 mM CaCl2, 20 mM 2-deoxy glucose, 1 mM NaCN) for 1 to 2 hours, while evaluating the cell damage by microscope. At the time when the sufficient damage were observed, the cells were washed with 1 ml of PBS twice, and then treated to fix with 1 ml of 3.7% formaldehyde. The cells obtained were washed with 1 ml of PBS again, stained with DAPI, and then washed with 1 ml of PBS in three times. The cell death of the cells was observed by a fluorescence microscope, and the degree of the observed cell death was converted to percentages.

**Q.** `COC(=O)c1nn(CCc2ccccc2)cc1NC(=O)CSc1ccc(Br)cc1` [Example 1, 4-[2-(4-bromo-phenylsulfanyl)-acetylamino]-1-phenethyl-1H-pyrazole-3-carboxylic acid methyl ester] was tested. Which cytotoxicity at 10 µM did it give?
**A.** Its cytotoxicity at 10 µM is 5.79%.

**Q.** For `COC(=O)c1nn(CCc2ccccc2)cc1NC(=O)CSc1ccccc1` [Example 2, 4-[2-(phenylsulfanyl)-acetylamino]-1-phenethyl-1H-pyrazole-3-carboxylic acid methyl ester], which cytotoxicity at 10 µM is on record?
**A.** The cytotoxicity at 10 µM was 11%.

**Q.** `COC(=O)c1nn(CCc2ccccc2)cc1NC(=O)CSc1cccc(OC)c1` [Example 3, 4-[2-(3-methoxy-phenylsulfanyl)-acetylamino]-1-phenethyl-1H-pyrazole-3-carboxylic acid methyl ester] was tested. Which cytotoxicity at 10 µM did it give?
**A.** The cytotoxicity at 10 µM was 8.26%.

**Q.** Which cytotoxicity at 10 µM does the source give for `COC(=O)c1nn(CCc2ccccc2)cc1NC(=O)CSc1ccc([N+](=O)[O-])cc1` [Example 4, 4-[2-(4-nitro-phenylsulfanyl)-acetylamino]-1-phenethyl-1H-pyrazole-3-carboxylic acid methyl ester] here?
**A.** The cytotoxicity at 10 µM was 3.74%.

**Q.** With `COC(=O)c1nn(CCc2ccccc2)cc1NC(=O)CSc1ccccc1N` [Example 5, 4-[2-(2-amino-phenylsulfanyl)-acetylamino]-1-phenethyl-1H-pyrazole-3-carboxylic acid methyl ester] as the compound, how does the cytotoxicity at 10 µM read?
**A.** Its cytotoxicity at 10 µM is 6.48%.

**Q.** How did the cytotoxicity at 10 µM turn out when `COC(=O)c1nn(CCc2ccccc2)cc1NC(=O)CSc1ccc(C)cc1` [Example 6, 4-[2-(4-methyl-phenylsulfanyl)-acetylamino]-1-phenethyl-1H-pyrazole-3-carboxylic acid methyl ester] was run?
**A.** Its cytotoxicity at 10 µM is 5.43%.

**Q.** Which cytotoxicity at 10 µM does the source give for `COC(=O)c1nn(CCc2ccccc2)cc1NC(=O)CSc1ccc(F)cc1` [Example 7, 4-[2-(4-fluoro-phenylsulfanyl)-acetylamino]-1-phenethyl-1H-pyrazole-3-carboxylic acid methyl ester] here?
**A.** The cytotoxicity at 10 µM was 6.49%.

**Q.** Which cytotoxicity at 10 µM does the source give for `COC(=O)c1nn(CCc2ccccc2)cc1NC(=O)CSc1ccccn1` [Example 8, 4-[2-(2-pyridylsulfanyl)-acetylamino]-1-phenethyl-1H-pyrazole-3-carboxylic acid methyl ester] here?
**A.** The cytotoxicity at 10 µM was 5.65%.

**Q.** `COC(=O)c1nn(CCc2ccccc2)cc1NC(=O)C[S+]([O-])c1ccccn1` (stereo not drawn) [Example 9, 4-[2-(2-pyridylsulfinyl)-acetylamino]-1-phenethyl-1H-pyrazole-3-carboxylic acid methyl ester] was tested. Which cytotoxicity at 10 µM did it give?
**A.** Its cytotoxicity at 10 µM is 3.74%.

**Q.** Which cytotoxicity at 10 µM does the source give for `COC(=O)c1nn(CCc2ccccc2)cc1NC(=O)CS(=O)(=O)c1ccccn1` [Example 10, 4-[2-(2-pyridylsulfonyl)-acetylamino]-1-phenethyl-1H-pyrazole-3-carboxylic acid methyl ester] here?
**A.** Its cytotoxicity at 10 µM is 7.27%.

**Q.** With `COC(=O)c1nn(CCc2ccccc2)cc1NC(=O)CSc1ccc(C)c(C)c1` [Example 11, 4-[2-(3,4-dimethyl-phenylsulfanyl)-acetylamino]-1-phenethyl-1H-pyrazole-3-carboxylic acid methyl ester] as the compound, how does the cytotoxicity at 10 µM read?
**A.** Its cytotoxicity at 10 µM is 15.7%.

**Q.** Which cytotoxicity at 10 µM does the source give for `COC(=O)c1nn(Cc2ccccc2)cc1NC(=O)CSc1ccc(Br)cc1` [Example 12, 4-[2-(4-bromo-phenylsulfanyl)-acetylamino]-1-benzyl-1H-pyrazole-3-carboxylic acid methyl ester] here?
**A.** The cytotoxicity at 10 µM was 11.5%.

**Q.** How did the cytotoxicity at 10 µM turn out when `COC(=O)c1nn(Cc2ccccc2)cc1NC(=O)CSc1ccccc1` [Example 13, 4-[2-phenylsulfanylacetylamino]-1-benzyl-1H-pyrazole-3-carboxylic acid methyl ester] was run?
**A.** The cytotoxicity at 10 µM was 9.81%.

**Q.** Which cytotoxicity at 10 µM does the source give for `COC(=O)c1nn(C)cc1NC(=O)CSc1ccc(Br)cc1` [Example 14, 4-[2-(4-bromo-phenylsulfanyl)-acetylamino]-1-methyl-1H-pyrazole-3-carboxylic acid methyl ester] here?
**A.** The cytotoxicity at 10 µM was 13.3%.

**Q.** For `COC(=O)c1nn(C)cc1NC(=O)CSc1ccccc1` [Example 15, 4-[2-phenylsulfanylacetylamino]-1-methyl-1H-pyrazole-3-carboxylic acid methyl ester], which cytotoxicity at 10 µM is on record?
**A.** The cytotoxicity at 10 µM was 11.3%.

**Q.** For `COC(=O)c1c(NC(=O)CSc2ccc(Br)cc2)cnn1CCc1ccccc1` [Example 16, 4-[2-(4-bromo-phenylsulfanyl)-acetylamino]-2-phenethyl-2H-pyrazole-3-carboxylic acid methyl ester], which cytotoxicity at 10 µM is on record?
**A.** Its cytotoxicity at 10 µM is 10.8%.

**Q.** Which cytotoxicity at 10 µM does the source give for `COC(=O)c1c(NC(=O)CSc2ccc(Br)cc2)cnn1C` [Example 17, 4-[2-(4-bromo-phenylsulfanyl)-acetylamino]-2-methyl-2H-pyrazole-3-carboxylic acid methyl ester] here?
**A.** The cytotoxicity at 10 µM was 13.9%.

**Q.** `COC(=O)c1nn(CCc2ccccc2)cc1NC(=O)CCSc1ccc(Br)cc1` [Example 18] was tested. Which cytotoxicity at 10 µM did it give?
**A.** The cytotoxicity at 10 µM was 8.75%.

**Q.** How did the cytotoxicity at 10 µM turn out when `CCOC(=O)c1cnn(CCc2ccccc2)c1NC(=O)CSc1ccc(Br)cc1` [Example 19, 5-[2-(4-bromo-phenylsulfanyl)-acetylamino]-1-phenethyl-1H-pyrazole-4-carboxylic acid ethyl ester] was run?
**A.** The cytotoxicity at 10 µM was 8.19%.

**Q.** For `COC(=O)c1nn(CCc2ccccc2)cc1NC(=O)C(Sc1ccc(Br)cc1)c1ccccc1` (stereo not drawn) [Example 20, 4-[2-(4-bromo-phenylsulfanyl)-2-phenyl-acetylamino]-1-phenethyl-1H-pyrazole-3-carboxylic acid methyl ester], which cytotoxicity at 10 µM is on record?
**A.** Its cytotoxicity at 10 µM is 6.07%.

**Q.** Which cytotoxicity at 10 µM does the source give for `COC(=O)c1cc(NC(=O)CSc2ccc(Br)cc2)n(C)n1` [Example 21, 5-[2-(4-bromo-phenylsulfanyl)-acetylamino]-1-methyl-1H-pyrazole-3-carboxylic acid methyl ester] here?
**A.** Its cytotoxicity at 10 µM is 8.33%.

**Q.** How did the cytotoxicity at 10 µM turn out when `COC(=O)c1cc(NC(=O)CSc2ccccc2)n(C)n1` [Example 22, 1-methyl-5-(2-phenylsulfanyl-acetylamino)-1H-pyrazole-3-carboxylic acid methyl ester] was run?
**A.** The cytotoxicity at 10 µM was 10.7%.

**Q.** `O=C(CSc1ccc(Br)cc1)Nc1cn(CCc2ccccc2)nc1C(=O)O` [Example 23, 4-[2-(4-bromo-phenylsulfanyl)-acetylamino]-1-phenethyl-1H-pyrazole-3-carboxylic acid] was tested. Which cytotoxicity at 10 µM did it give?
**A.** The cytotoxicity at 10 µM was 7.76%.

**Q.** For `O=C(CSc1ccc(Br)cc1)Nc1cn(CCc2ccccc2)nc1C1=NCCO1` [Example 24, 2-(4-bromo-phenylsulfanyl)-N-[3-(4,5-dihydro-oxazol-2-yl)-1-phenethyl-1H-pyrazol-4-yl]-acetamide], which cytotoxicity at 10 µM is on record?
**A.** Its cytotoxicity at 10 µM is 12.7%.

**Q.** `NC(=O)c1nn(CCc2ccccc2)cc1NC(=O)CSc1ccc(Br)cc1` [Example 25, 4-[2-(4-bromo-phenylsulfanyl)-acetylamino]-1-phenethyl-1H-pyrazole-3-carboxylic acid amide] was tested. Which cytotoxicity at 10 µM did it give?
**A.** Its cytotoxicity at 10 µM is 6.07%.

**Q.** How did the cytotoxicity at 10 µM turn out when `O=C(CSc1ccc(Br)cc1)Nc1cn(CCc2ccccc2)nc1CO` [Example 26, 2-(4-bromo-phenylsulfanyl)-N-(3-hydroxymethyl-1-phenethyl-4H-pyrazol-4-yl)-acetamide] was run?
**A.** Its cytotoxicity at 10 µM is 7.27%.

**Q.** For `COC(=O)c1nn(CCc2ccccc2)cc1NC(=O)CCc1ccccc1` [Example 27, 4-[3-phenyl-propionylamino]-1-phenethyl-4H-pyrazole-3-carboxylic acid methyl ester], which cytotoxicity at 10 µM is on record?
**A.** Its cytotoxicity at 10 µM is 5.08%.

**Q.** `COC(=O)c1nn(CCc2ccccc2)cc1NC(=O)COc1ccc(Br)cc1` [Example 28, 4-[2-(4-bromophenoxy)-acetylamino]-1-phenethyl-1H-pyrazole-3-carboxylic acid methyl ester] was tested. Which cytotoxicity at 10 µM did it give?
**A.** The cytotoxicity at 10 µM was 3.74%.

**Q.** With `COC(=O)c1nn(CCc2ccccc2)cc1NC(=O)CNc1ccc(Br)cc1` [Example 29, 4-[2-(4-bromo-phenylamino)-acetylamino]-1-phenethyl-1H-pyrazole-3-carboxylic acid methyl ester] as the compound, how does the cytotoxicity at 10 µM read?
**A.** Its cytotoxicity at 10 µM is 9.31%.

**Q.** How did the cytotoxicity at 10 µM turn out when `COCc1nn(CCc2ccccc2)cc1NC(=O)CSc1ccc(Br)cc1` [Example 30, 2-(4-bromo-phenylsulfanyl)-N-(3-methoxymethyl-1-phenethyl-1H-pyrazol-4-yl)-acetamide] was run?
**A.** Its cytotoxicity at 10 µM is 5.22%.
